Measurements from publication PMC5057504, “Amyloid-β 1–24 C-terminal truncated fragment promotes amyloid-β 1–42 aggregate formation in the healthy brain” (Acta Neuropathologica Communications, 2016).

Columns and labels:
wt mice = assay: Behavioral tests (open field, social interaction, novel object recognition) after intracranial injection; type: in vivo, mouse; settings: wt mice i.c. injected, compared with vehicle and age matched APP/PS1 mice
Procedure: Mice were placed in a multi-unit open field maze (ViewPoint instruments) with field chamber (25 cm long and 25 cm wide), and activity was recorded using ViewPoint video tracking software. Each quadrant was digitally divided into a peripheral and a central region using ViewPoint video tracking software. The central quadrants are collectively referred to as the center zone and peripheral quadrants are collectively referred to as the peripheral zone. Data were collected continually for 30 min and the distance traveled (cm), velocity (cm/s), and the distance traveled in the center zone versus the peripheral zone were all recorded and scored automatically. In the open field task ambulatory movements (valued as distance traveled and movement speeds) and anxiety-like behaviors (as the as distance traveled in the center zone versus the peripheral zone) can be assessed in response to a novel environment.
The social interaction test was used to measure how mice respond to a social partner during a 5-min test following isolation housing. Since isolation housing potentiates expression of innate territorial defensive responses, in this test we evaluated the reaction of mice to the presence of a new animal in free conditions in the same arena. […]
The test apparatus consisted of an open field box measuring 50 cm × 25 cm and all sessions were video-recorded. […]

[1] = ATR-FTIR spectroscopy of peptide assemblies; type: physicochemical; settings: 100 μM peptide (mix 50 μM each), incubated at 37 °C in PBS, 20 min to 6 days; hydrated film
Procedure: The in vitro aggregation of Aβ samples was monitored by ThT assay (Fig. 6a–c). ThT fluorescence emission was recorded at different incubation times at 37 °C in physiological buffer. […] Further, we recorded the emission fluorescence spectra of the samples incubated for 96 h at 37 °C after tyrosine excitation at 270 nm, which is also able to produce ThT fluorescence. […] The secondary structures of the peptide assemblies were also investigated by Fourier transform infrared (FTIR) spectroscopy in attenuated total reflection (ATR) (Fig. 6d). […] During incubation at 37 °C of H-Aβ42, this component increased in intensity while that at ~1695 cm^−1 decreased (Fig. 6d). These spectral changes have been already observed in the fibrillogenesis of Aβ peptides and of other proteins, and assigned to the conformational conversion towards fibrillar structures with a parallel orientation of the intermolecular β-sheets. […]
For the ATR-FTIR measurements, 2 μL of Aβ42 (at 100 μM concentration), of Aβ24 (at 100 μM concentration), or of the equimolar mixture of the two peptides (at 50 μM concentration each) were deposed on the single reflection diamond element of the ATR device (Quest, Specac, UK). Spectra were recorded after solvent evaporation to allow the formation of an hydrated film as previously described. […]

wt mice brain = assay: Intracranial injection in wt mice: amyloid aggregate deposition (6E10 DAB, Congo red, ThT staining); type: in vivo, mouse; settings: for ThT-positive aggregates in brain sections: 2.5 months after i.c. injection; for 6E10-positive aggregates in brain, 6 months after injection: i.c. injection of oligomeric peptide, 6E10 followed by HRP
Procedure: Mice were anesthetized and perfused with 0.9 % saline, followed by 4 % PFA. The 30 μm cryosections of brain were blocked in PBS containing 10 % goat serum and 0.1 % Triton X-100 for 1 h at room temperature before being incubated overnight at 4 °C with primary antibodies. The following day, the slides were rinsed in PBS and incubated at room temperature for 1 h with secondary antibody. The slides were processed using the ABC detection kit (Vector Laboratories). […] Immunofluorescence and ThT staining were performed on brain sections. Brain slices were washed three times in PBS and incubated for 1 h at room temperature in blocking solution (3 % BSA). Subsequently, the slides were washed 3 times and incubated overnight with specific antibodies. The next day, sections were washed in PBS and incubated for 2 h at room temperature with specific fluorochrome-conjugated secondary antibodies diluted in 3 % BSA in the dark. ThT solution was prepared as described above. Final solution was added to free floating slides for 1 min and very quickly washed with 80 % methanol followed by 3 washes with distilled water. Images were acquired by Virtual Slides microscope (VS120, Olympus). For quantification, both diffuse-plaques and dense-core plaques were considered, as described in [92]. Small dots and deposits at the slice edge were not counted. The entire surface of the slice was examined. For congo red histological staining, slices were air-dried on glass overnight, then stained with a 0.2 % congo red solution according to [93]. Specimens were acquired by transmittance polarized light microscopy, FITCH filtered epifluorescence. For quantification, bright field images were analyzed by color segmentation plugin-ImageJ software (NIH, Bethesda, MD). The entire area of deposits was considered.

murine Aβ = molecular target: T1, murine Aβ (Mus musculus, UniProt P12023); assay: Immunoblot of brain homogenate fractions with murine-Aβ-specific antibody m3.2; type: in vivo; settings: wt mice analyzed 4 months after i.c. injection; supernatant and pellet
T1 construct: co-aggregation of the injected peptide and endogenously produced mouse Aβ42, retained in the brain; from tissue; host or cells: brain homogenate (supernatant and pellet fractions) of injected wild-type mice
T1 sequence (P12023 672-713 limits assumed): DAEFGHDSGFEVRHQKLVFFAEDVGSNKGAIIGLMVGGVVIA
Procedure: Animals were anesthetized and perfused with PBS before brains were removed, weighted and homogeneted in a mild hypotonic buffer (50 mM Tris pH 8, 150 mM NaCl, 5 mM EDTA supplemented with phosphatase and protease inhibitor, EDTA-free, Roche). Supernatants were then centrifuged for 1 h at 3000 × g to pellet insoluble material, including insoluble Aβ species. Samples were either frozen on dry ice or LDS sample buffer (Invitrogen) containg 5 % β-mercaptoethanol was immediately added. Pellets were directly resuspended in 20 μl of LDS sample buffer. 10 μl sample were loaded onto a Bolt 4–12 % Bis-Tris Plus Gels (Thermo Fisher) for Western Blot evaluation. Samples were separated using MES buffer and transferred onto a […] nitrocellulose membrane (Bio-Rad). Membranes were washed in TBS-Tween (150 mM NaCl, 50 mM Tris and 0.1 % (v/v) Tween-20) and incubated for 45 min at room temperature in blocking solution (5 % milk or 2.5 % serum bovine albumin in TBST). Membranes were subsequently probed overnight at 4 °C with primary antibodies diluted in TBS-T buffer. Membranes were washed extensively and incubated for 45 min at room temperature with horseradish peroxidase-conjugated (HRP) secondary antibody diluted in TBST buffer. Antibody-specific signals were detected using enhanced chemiluminescence reagents (Clarity Western ECL substrate, Bio-Rad).

TNF-alpha = TNF-alpha ELISA in serum and brain of intracranially injected wt mice; type: in vivo, mouse; settings: wt mice 2.5 months after i.c. injection
Procedure: Stereotaxic intracranial injections in mice brains were made under a mixture of ketamine (100 mg/kg) and xylazine (10 mg/kg) anesthesia. After surgical exposure of dura mater, both the bregma and the skull surface served as the stereotaxic zero points. Using a Hamilton syringe, 4 μL of H-Aβ or vehicle (vehicle consists of physiological buffer−50 mM NaPi, 100 mM NaCl pH 7.4−) were injected into the neocortex (AP 1 mm, ML 2 mm, DV−2 mm) with a speed of 1.5 μL/min, the needle was kept in place for an additional minute before it was slowly drawn out. For each experiment 4 pmol of H-Aβ42, 4 pmol of H-Aβ24 and 2 pmol of H-Aβ42 plus 2 pmol of H-Aβ24 for the mix condition were injected, as described in [70, 90]. Different conditions were used for specific experiments as specified in the text. After suturing the incision, mice were maintained on a warm pad until recovery from the anesthesia, then returned to their cages.

Procedure for bEnd.3 cells: (ATCC® CRL2299™) were used as a representative BBB model. bEnd.3 cells were cultured at 37 °C, 5 % CO2/saturated humidity in DMEM supplemented with 10 % heat-inactivated fetal bovine serum (FBS), 1 % penicillin-streptomycin.
bEnd.3 cells were seeded at a concentration of 30000 cells/cm^2 onto geltrex-coated (thin layer; Gibco) transwell inserts (polycarbonate, 12 mm diameter, 3 μm pore size; Costar) until a monolayer was established.
To assess Aβ42 exchange across the BBB model, bEnd.3 cells were cultured upside-down on a transwells system as described above, until steady-state TEER had been reached. […] The level of fluorescence in the media collected was measured for 488-Aβ42 (λex = 503 nm and λem = 528 nm) or for FAM-Aβ42 (λex = 492 nm and λem = 518 nm) using a Synergy™ H4 Hybrid Multi-Mode Microplate Reader (BioTek). Relative fluorescence units were converted to concentration according to prepared standard, and were corrected for background fluorescence. […] Briefly, Aβ42 volume cleared (ΔVc) was calculated using the equation ΔVc = Clower × Vlower/Cupper, where Cupper and Clower are fluorescently-labeled Aβ42 concentrations in the donor and receiving compartments, respectively, and Vlower is the volume on the basolateral side. […] Permeability coefficients (P) were calculated by dividing against the surface area of the filter (1.12 cm^2). […]
Procedure for primary microglia: Primary microglia were obtained from mixed cultures prepared from the cerebral cortex of mice at the postnatal day 1 (P1-3). Microglia cells were isolated by shaking flasks for 45 min at 230 rpm at day 10 after plating. Cells were then seeded on poly-L-ornithine (Sigma) pre-coated wells at the density of 1,5×10^5 cell/mL in DMEM containing 20 % heat-inactivated fetal bovine serum (FBS) and incubated at 37 ° C in a humidified atmosphere of 5 % CO2 and 95 % air. Where indicated, cells were pre-treated for 45 min with protease inhibitors and EDTA 2.5 mM (Roche) which were directly added to the cell culture medium. […] When not differently indicated, for in vitro experiments microglia were treated with H-Aβ42 400 nM.
Aliquots of supernatant samples (200 μL) were loaded on nitrocellulose membrane Trans-Blot Transfer Medium (0.22 μm, Bio-Rad), by vacuum deposition on the Bio-Dot SF blotting apparatus (Bio-Rad). Serial dilution curves of Aβ42 synthetic protein were preliminarily run to obtain non-saturating condition of immunodetection. DB dots images were analysed by Image Lab™ software (Bio-Rad).
Aβ42 levels were determined using specific ELISA kit (Amyloid-beta (x-42) ELISA IBL, International) following manufacturer’s instructions. Briefly, 100 μL of sample was added into the pre-coated plate and was incubated overnight at 4 °C. After washing each well of the pre-coated plate, 100 μL of labeled antibody solution was added and the mixture was incubated for 1 h at 4 °C in the dark. After washing, chromogen was added and the mixture was incubated for 30 min at room temperature in the dark. After the addition of stop solution, the resulting color was assayed at 450 nm using a microplate absorbance reader (Synergy H4 Synergy™ H4 Microplate Reader, BioTek).

Substance	Internalization by microglia (primary microglia; primary microglia, 1 μM, 3 h of treatment)	Behavioral phenotype (open field, sociality task, NOR) (wt mice)	ATR-FTIR Amide I band (secondary structure of the assemblies) [1]	ThT-positive aggregates in brain sections (wt mice brain)	6E10-positive aggregates in brain, 6 months after injection (wt mice brain; 4 pmol (mix 2 + 2 pmol))	6E10-positive aggregates in brain, 2.5 months after injection (wt mice brain; i.c. injection, 4 pmol (mix 2 + 2 pmol))	Effect of H-Aβ24 on the diffusion of fluorescently labeled scrambled H-Aβ42 (bEnd.3 cells)	H-Aβ42 apical-to-basolateral passage when pre-incubated with H-Aβ24, dot blot (bEnd.3 cells)	m3.2 positive bands (murine Aβ) in brain homogenate fractions (murine Aβ)	TNF-alpha levels in serum and brains (TNF-alpha)	Extracellular Aβ42 in microglia medium, ELISA with capture antibody 6E10 (N-terminal), detection 4G8 (primary microglia)	Extracellular Aβ42 in microglia medium, ELISA with capture antibody against the C-terminal domain (primary microglia)	Extracellular Aβ42 in microglia medium, dot blot with C-terminal anti-Aβ42 (primary microglia)
HiLyte Fluor™ 488-labeled Beta-Amyloid (1–42) [488-conjugated H-Aβ42]	efficiently internalized												
synthetic human Aβ1-24 peptide [H-Aβ24]		cognitive defects comparable to APP/PS1 mice	two main peaks at ~1695 cm^−1 and ~1628 cm^−1	ThT-positive aggregates were detected	induced the formation of aggregates	already detectable	No effect	decreased amount of H-Aβ42	presence of m3.2 positive bands	significant increase			
Synthetic human Aβ1–42 [H-Aβ42]		some behavioral alterations	higher intensity of the ~1628 cm^−1 peak	only ThT-positive blood vessels	did not cause Aβ deposition					much less	lack of changes	significant decrease	reduction of extracellular Aβ42
